These results are taken from US20030059436A1, “Band 3 antigenic peptides, malaria polypeptides and uses thereof” (priority 2001, published 2003).

“Also recorded” adds a separate entry of the source. Ends that are not written are not given here. * marks the point of attachment. Biotin = O=C1N[C@H]2[C@H](CS[C@H]2CCCCC(=O)*)N1

The subject of assay [1] is P. falciparum (3D7 strain) invasion of human RBCs. Nature of the assay: Invasion inhibition assay by 3H-hypoxanthine incorporation method. It counts as cell-based, Plasmodium falciparum. The conditions noted are these: for inhibition of invasion, 3H-hypoxanthine uptake assay: 400 μM peptide, vs other Band 3 peptides, no peptide and unrelated peptide; for IC50: 3H-hypoxanthine incorporation method, mean of three experiments±standard error, read-out: IC50 (50% inhibition in the parasite invasion of RBCs). As for the experimental part:
(§1) FIG. 2 depicts the inhibition of P. falciparum invasion into RBCs by human Band 3 peptides. […] Ectodomains are shown as boxes in the three models. (i) Overlapping 12 to 20-residue peptides shown in solid bars were prepared according to the putative ectodomain boundaries. (ii) Casey model (Fujinaga, J., et al., J Biol Chem 274:6626-6633, 1999). (iii) Reithmeier model (Popov, M., et al., J Biol Chem 272:18325-18332, 1997). (iv) Sherman model (Crandall, I., et al., Parasitology 108:257-267, 1994). […] Artemisinin (25 μM) and no peptide samples were positive and negative controls, respectively. FIG. 2C is a bar graph depicting of invasion inhibition assay by ^3H-hypoxanthine incorporation method. Effects of Band 3 peptides relative to the control sample (no peptide) are shown. Artemisinin (50 μM) and unrelated peptide derived from dematin were used as positive and negative control, respectively. FIG. 2D is a bar graph that depicts results of a growth inhibition assay by ^3H-hypoxanthine incorporation method. Effects of Band 3 peptides relative to the control sample (no peptide) are shown. In all inhibition assays, mean parasitemia from three experiments was calculated with standard error. DMSO background was corrected when necessary. Student's t test was used to compare with the control (no peptide). FIG. 2E is a table providing a summary of net charge and pI for Band 3 peptides.
(§2) To investigate the possible role of Band 3 as a host receptor in P. falciparum invasion into RBCs, we employed a peptide scanning strategy based on recent topology models of human erythroid Band 3 (FIG. 2A). Synthetic peptides were derived from the putative ectodomains of human RBC Band 3, and their ability to inhibit the P. falciparum (3D7 strain) invasion of human RBCs in culture was tested using both visual counting (Schlichtherle, M., et al., Methods in Malaria Research 2000) and ^3H-hypoxanthine incorporation (Chulay, J. D., et al., Exp Parasitol 55:138-146, 1983) methods. […] Inhibition by these four Band 3 peptides was concentration dependent (50, 200, 500, and 1000 μM peptides, data not shown).
The IC50 values for peptides 5A and 5B could not be estimated because a saturable peptide concentration could not be reached with a low DMSO (≦1%) concentration. It is noteworthy that our peptides 5A, 5B, 5C, and 6A were designed by randomly dividing the two ectodomains of Band 3, and thus these peptides may not necessarily represent Band 3 amino acid compositions having the best inhibitory property. […] These findings are consistent with the view that Band 3 functions as an important receptor in the parasite invasion of RBCs.

Assay [2] has the same test system. Nature of the assay: Invasion inhibition assay by visual counting method. Format: cell-based, Plasmodium falciparum. The conditions noted are these: for inhibition of invasion, visual counting assay: 500 μM peptide, ring stage parasites in Giemsa-stained thin smears, vs other Band 3 peptides and no peptide control; for inhibition of the invasion of Plasmodium falciparum malaria parasite into human erythrocytes in vitro: peptide scanning experiment, compared to control sample. As for the experimental part:
as §1
Plasmodium parasite cultures were maintained at 37° C. as described by Klotz, F. W., et. al., J Exp Med 165:1713-1718, 1987. To determine infection in RBCs, rings were counted from RBCs in Geimsa-stained thin smears.
as §2

Assay [3] has as its system P. falciparum intraerythrocytic growth. Nature of the assay: Growth inhibition assay by 3H-hypoxanthine incorporation method. It counts as cell-based, Plasmodium falciparum. To be noted: 400 μM peptide; vs no peptide control. As for the experimental part:
as §1, §2

In assay [4] the test system is P. falciparum (3D7 strain) merozoite proteins. Description: Blot overlay assay, merozoite proteins. Format: binding, Plasmodium falciparum. The conditions noted are these: biotinylated peptides each 400 μM. As for the experimental part: Naturally released P. falciparum (3D7 strain) merozoites isolated as described (Mrema, J. E., et al., Exp Parasitol 54:285-295, 1982) and human RBC ghosts prepared as described (Dodge, J. T., et al., Arch Biochem Biophys 100:119-130, 1963) were subjected to SDS-PAGE. Proteins transferred onto nitrocellulose membrane were blocked overnight with 10% milk, 2% BSA, TBST (0.05%) at 4° C. After washing (4×) in TBST, the blot was incubated with biotinylated Band 3 peptides (each 400 μM) in TBST (0.025%), 10 mM phosphate buffer (pH 8.0), 60 mM KCl for 4 h at RT. After extensive washing, the blot was incubated with neutravidin-linked horseradish peroxidase (1:21,000, Pierce Chemical Co., Rockford, Ill.) in TBST (0.05%) with 2% BSA for 5-6 h at RT. After washing the blot with TBST (5×) and TBS (2×), bound peptides were visualized by the ECL method (Pierce Chemical Co.).
A binding study was carried out between the synthetic Band 3 peptides and merozoite proteins to understand the mechanism by which Band 3 peptides 5B, 5C, and 6A inhibit the parasite invasion of RBCs. P. falciparum merozoites essentially free of contaminating RBC membrane components were isolated (FIG. 3A), and total merozoite proteins were separated by SDS-PAGE (FIG. 3B). […] This was confirmed by Western blot using anti-spectrin and anti-Band 3 antibodies (not shown). […] Approximate molecular masses of these merozoite proteins are 175, 150, 125, 52, 48, 42, and 35 kDa (shown by arrowheads).

Assay [5] deals with T1, SV40 large T-antigen fused to GAL4 AD (pGADT7 vector), two-hybrid control (UniProt P03070 86-708).
T1 construct: Kit control; also called pGADT7-T
Nature of the assay: yeast two-hybrid assay.
Text: For the yeast two-hybrid assay, the co-transformation method was used to analyze the protein interaction in yeast AH109 cells using SD/-Leu/-Trp selection plates.

T1 sequence (P03070 86-708 limits assumed): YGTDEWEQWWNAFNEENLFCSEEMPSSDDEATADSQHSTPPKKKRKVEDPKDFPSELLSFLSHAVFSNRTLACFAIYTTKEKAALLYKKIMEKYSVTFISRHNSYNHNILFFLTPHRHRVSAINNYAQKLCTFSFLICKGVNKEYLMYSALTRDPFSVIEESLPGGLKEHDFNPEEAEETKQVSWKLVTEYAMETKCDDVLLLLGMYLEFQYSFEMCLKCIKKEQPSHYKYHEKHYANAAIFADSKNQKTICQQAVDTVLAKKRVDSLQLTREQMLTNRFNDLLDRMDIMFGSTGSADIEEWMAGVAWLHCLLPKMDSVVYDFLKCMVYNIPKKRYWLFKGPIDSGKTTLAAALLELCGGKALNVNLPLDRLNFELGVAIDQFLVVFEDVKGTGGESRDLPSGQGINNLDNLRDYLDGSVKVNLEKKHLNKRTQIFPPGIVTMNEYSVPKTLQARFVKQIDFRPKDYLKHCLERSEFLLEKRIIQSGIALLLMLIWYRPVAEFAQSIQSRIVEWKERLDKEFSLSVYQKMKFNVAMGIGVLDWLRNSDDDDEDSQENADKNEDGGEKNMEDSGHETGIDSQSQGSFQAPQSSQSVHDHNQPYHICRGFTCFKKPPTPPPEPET

By IC50 is commonly meant the midpoint of a concentration-inhibition curve. Turning to “DRILLLFKPPKYHPDVPYVK [Peptide 6A, Synthetic human Band 3 peptide, amino acid 807-826]”, in assay [1], the “inhibition of invasion, 3H-hypoxanthine uptake assay” value is on record as “strong inhibition” and the IC50 was 316 ± 45 µM. For the same molecule, the “inhibition of invasion, visual counting assay” value in assay [2] was “significant levels of inhibition of invasion”. Further, the “inhibition of the invasion of Plasmodium falciparum malaria parasite into human erythrocytes in vitro” value (from here on “inhibition of the invasion … in vitro”) in assay [2] (listed as B36A) was “inhibited the invasion; also recorded: highest inhibition”. Further, the “effect on intraerythrocytic growth of the parasite (3H-hypoxanthine uptake)” value (“effect on intraerythrocytic growth” for short) in assay [3] is “did not affect the intraerythrocytic growth of the parasite”. The “binding to merozoite proteins, blot overlay” value in assay [4] is on record as “specifically bind”.
Turning to “GKASTPGAAAQIQEVKEQRI [Peptide 5C, Synthetic human Band 3 peptide, amino acid 742-761]”, in assay [1], the “inhibition of invasion, 3H-hypoxanthine uptake assay” value is on record as “moderate but significant levels of inhibition of invasion” and the IC50 stood at 591 ± 131 µM. In addition, the “inhibition of invasion, visual counting assay” value in assay [2] is “significant levels of inhibition of invasion”. The “inhibition of the invasion … in vitro” value in assay [2] (listed as B35C) was “inhibited the invasion; also recorded: highest inhibition”. In addition, the “effect on intraerythrocytic growth” value in assay [3] was “did not affect the intraerythrocytic growth of the parasite”. In addition, in assay [4], the “binding to merozoite proteins, blot overlay” value is on record as “specifically bind”.
Take GMPWLSATTVRSVTHANALT [Peptide 5A]: in assay [2], the “inhibition of invasion, visual counting assay” value was “significant levels of inhibition of invasion” and the “inhibition of the invasion … in vitro” value is “inhibited the invasion”. The “effect on intraerythrocytic growth” value in assay [3] was “mild reduction in 3H-hypoxanthine uptake”.
On to “Peptide 1: Synthetic human Band 3 peptide, amino acid 424-435, N-terminal biotin tag (Biotin-GGLLGEKTRNQM; UniProt P02730 424-435, looked up, fragment)”, for which the “inhibition of invasion, 3H-hypoxanthine uptake assay” value in assay [1] was “moderate but significant levels of inhibition of invasion”. In addition, the “effect on intraerythrocytic growth” value in assay [3] is reported as “mild reduction in 3H-hypoxanthine uptake”.
As to “SVTHANALTVMGKASTPGAA [Peptide 5B, Synthetic human Band 3 peptide, amino acid 731-750]”, the “inhibition of invasion, 3H-hypoxanthine uptake assay” value in assay [1] is reported as “moderate but significant levels of inhibition of invasion”. For the same molecule, in assay [2], the “inhibition of invasion, visual counting assay” value was “significant levels of inhibition of invasion” and the “inhibition of the invasion … in vitro” value was “inhibited the invasion”. Moreover, the “effect on intraerythrocytic growth” value in assay [3] is reported as “did not affect the intraerythrocytic growth of the parasite”.

B1: GAL4 DNA-BD fusion of Band 3 peptide 5BC (amino acids 731-761) in pGBKT7 (other)
peptide: SVTHANALTVMGKASTPGAAAQIQEVKEQRI
modifications: not fully specified (N-terminus); also: GAL4 DNA-BD fusion in pGBKT7, fused part not given here
As to B1, in assay [5], the binding result is “no binding”.

B2: GAL4 DNA-BD fusion of Band 3 peptide 6AB (amino acids 807-842) in pGBKT7 (other)
peptide: DRILLLFKPPKYHPDVPYVKRVKTWRMHLFTGIQII
modifications: not fully specified (N-terminus); also: GAL4 DNA-BD fusion in pGBKT7, fused part not given here
In the case of B2, in assay [5], the binding result was “no binding”.

B3: GAL4 DNA-BD fusion of Band 3 peptide 5ABC (amino acids 720-761) in pGBKT7 (other)
peptide: GMPWLSATTVRSVTHANALTVMGKASTPGAAAQIQEVKEQRI
modifications: not fully specified (N-terminus); also: GAL4 DNA-BD fusion in pGBKT7, fused part not given here
notes: also called BD-5ABC; pGBKT7-5ABC
For the molecule B3, in assay [5], the binding result is listed as “no binding”.
